Measurements: patent US20160347750A1, “DIHYDROPTERIDINONE DERIVATIVES AND USES THEREOF” (Dana-Farber Cancer Institute, Inc., priority 2014, published 2016)
Where two headings read alike, the source gives them in different places.

Columns and labels:
NOMO1 = assay: Cell line IC50, NOMO1; type: cell-based
BRDT = BRDT (Homo sapiens, UniProt Q58F21); assay: BRDT IC50, Table 2; type: binding
BRD4 [1] = biological target: T1, BRD4 (Homo sapiens, UniProt O60885); assay: BRD4 IC50, first listed in Table 2; type: binding; details: first BRD4 value listed in the cell
797 = assay: Cellular assay, cell viability by ATPlite, 797 cells; type: cell-based; details: for IC50: read-out: 797 IC50
PLK1 = PLK1 (Homo sapiens, UniProt P53350); assay: PLK1 kinase IC50, Table 2; type: biochemical
Kasumi-1 = assay: Cell line IC50, Kasumi-1; type: cell-based; details: Kasumi-1 cell line
TF-1 = assay: Cell line IC50, TF-1; type: cell-based; details: TF-1 cell line
BRD4 [2] = biological target: T1, BRD4; assay: BRD4 IC50, second listed in Table 2; type: binding
MOLM-13 = assay: Cell line IC50, MOLM-13; type: cell-based; details: MOLM-13 cell line
MV411 = assay: Cell line IC50, MV411; type: cell-based
BRD4.1 [3] = biological target: T2, BRD4.1 (Homo sapiens, UniProt O60885); details: read-out: BRD4.1 (IC50)
BRD4.1 [4] = biological target: T2, BRD4.1; details: read-out: ITC (Kd); BRD4.1, ITC at 25 C
HL60 = assay: cells; details: Homo sapiens, HL-60, read-out: HL60 (EC50, M)
AURKA = biological target: T3, AURKA (Homo sapiens, UniProt O14965); assay: AURKA kinase IC50, Table 2; type: biochemical
T3 sequence (O14965 1-403): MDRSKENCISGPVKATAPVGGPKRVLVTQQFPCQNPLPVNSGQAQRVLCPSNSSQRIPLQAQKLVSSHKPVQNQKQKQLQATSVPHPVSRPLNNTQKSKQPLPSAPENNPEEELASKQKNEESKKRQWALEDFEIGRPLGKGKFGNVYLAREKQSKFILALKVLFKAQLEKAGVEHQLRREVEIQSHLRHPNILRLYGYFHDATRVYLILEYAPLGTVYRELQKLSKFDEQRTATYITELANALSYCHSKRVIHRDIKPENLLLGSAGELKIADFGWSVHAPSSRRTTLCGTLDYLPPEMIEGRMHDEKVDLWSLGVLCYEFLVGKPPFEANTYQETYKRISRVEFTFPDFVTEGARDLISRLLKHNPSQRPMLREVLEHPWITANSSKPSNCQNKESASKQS

[5] = second BRD4 value listed in the cell, read-out: BRD4 IC50
[6] = Homo sapiens, NOMO1 (NOMO-1) cell line
[7] = Homo sapiens, NOMO-1, NOMO1 cell line

PLK1, sequence (P53350 whole entry): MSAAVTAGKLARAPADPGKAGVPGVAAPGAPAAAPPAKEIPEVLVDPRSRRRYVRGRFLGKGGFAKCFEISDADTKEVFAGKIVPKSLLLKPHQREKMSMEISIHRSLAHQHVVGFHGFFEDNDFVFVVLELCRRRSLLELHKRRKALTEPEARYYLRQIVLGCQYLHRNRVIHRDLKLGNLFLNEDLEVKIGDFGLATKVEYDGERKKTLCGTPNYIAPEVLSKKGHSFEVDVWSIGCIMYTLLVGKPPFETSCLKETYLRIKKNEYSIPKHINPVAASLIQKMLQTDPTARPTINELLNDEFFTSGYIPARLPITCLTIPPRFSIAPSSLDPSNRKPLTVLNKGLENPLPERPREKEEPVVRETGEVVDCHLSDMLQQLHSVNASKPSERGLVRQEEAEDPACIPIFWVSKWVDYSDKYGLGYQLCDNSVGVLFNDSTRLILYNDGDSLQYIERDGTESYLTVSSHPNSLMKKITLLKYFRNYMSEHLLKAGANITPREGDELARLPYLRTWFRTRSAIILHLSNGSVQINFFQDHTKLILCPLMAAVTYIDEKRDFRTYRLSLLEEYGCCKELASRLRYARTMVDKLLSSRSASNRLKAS

CC[C@@H]1C(=O)N(C)c2cnc(Nc3ccc(C(=O)NC4CCN(C)CC4)cc3OC3CCOCC3)nc2N1C1CCCC1
IC50 (NOMO1; NOMO1 (NOMO-1) cell line): 491 nM | IC50 (BRDT): 862 nM | IC50 (BRD4 [1]): 175 nM | IC50 (797; 797 cell line, Table 2): 88 nM | IC50 (PLK1): 57.6 nM | IC50 (Kasumi-1): 183 nM | IC50 (TF-1): 1160 nM | IC50 (BRD4 [2]; [5]): 228 nM | IC50 (MOLM-13): 111 nM | IC50 (MV411): 74.6 nM

CC[C@@H]1C(=O)N(C)c2ccc(N3CCc4cc(C(=O)NC5CCN(C)CC5)ccc43)nc2N1C1CCCC1
IC50 (NOMO1; [6]): 1730 nM | IC50 (BRDT): 1050 nM | IC50 (BRD4 [1]): 394 nM | IC50 (797; 797 cell line, Table 2): 937 nM | IC50 (PLK1): > 10000 nM | IC50 (BRD4 [2]; [5]): 172 nM | IC50 (MOLM-13; Homo sapiens): 828 nM | IC50 (MV411; Homo sapiens, MV4-11): 357 nM

Cc1sc2c(c1C)C(c1ccc(Cl)cc1)=N[C@@H](CC(=O)OC(C)(C)C)c1nnc(C)n1-2 [JQ1, reference compound]
IC50 (NOMO1; NOMO1 (NOMO-1) cell line): 172 nM | IC50 (797; 797 cell line, Table 2): 92 nM | IC50 (Kasumi-1): 48.8 nM | IC50 (TF-1): 109 nM | IC50 (MOLM-13): 89.2 nM | IC50 (MV411): 65.6 nM

CC[C@@H]1C(=O)N(CC)c2cnc(Nc3ccc(C(=O)NC4CCN(C)CC4)cc3OC)nc2N1C1CCCC1
IC50 (NOMO1; [6]): 232 nM | IC50 (BRDT): 1330 nM | IC50 (BRD4 [1]): 339 nM | IC50 (797; 797 cell line, Table 2): 166 nM | IC50 (Kasumi-1; Homo sapiens): 239 nM | IC50 (TF-1; Homo sapiens): 806 nM | IC50 (BRD4 [2]; [5]): 546 nM | IC50 (MOLM-13; Homo sapiens): 174 nM | IC50 (MV411; Homo sapiens, MV4-11): 112 nM

CC[C@@H]1C(=O)N(C)c2ccc(Nc3ccc(C(=O)NC4CCN(C)CC4)cc3OC)nc2N1C1CCCC1
IC50 (NOMO1; [6]): 1830 nM | IC50 (BRDT): 859 nM | IC50 (BRD4 [1]): 263 nM | IC50 (797; 797 cell line, Table 2): 701 nM | IC50 (PLK1): 1870 nM | IC50 (BRD4 [2]; [5]): 188 nM | IC50 (MOLM-13; Homo sapiens): 851 nM | IC50 (MV411; Homo sapiens, MV4-11): 404 nM

COc1cc(C(=O)NC2CCN(C)CC2)ccc1Nc1ncc2c(n1)N(C1CCCC1)[C@H](CC(C)C)C(=O)N2C
IC50 (NOMO1; [6]): 775 nM | IC50 (BRDT): 24500 nM | IC50 (BRD4 [1]): 13500 nM | IC50 (797; 797 cell line, Table 2): 292 nM | IC50 (PLK1): 78 nM | IC50 (BRD4 [2]; [5]): 18800 nM | IC50 (MOLM-13; Homo sapiens): 461 nM | IC50 (MV411; Homo sapiens, MV4-11): 550 nM

CC[C@@H]1C(=O)N(C)c2cnc(Nc3ccc(C(=O)N[C@H]4CC[C@H](N5CCN(CC6CC6)CC5)CC4)cc3OC)nc2N1C(C)C
IC50 (BRD4.1 [3]): 1070 nM | Kd (BRD4.1 [4]): 255 nM

CC[C@@H]1C(=O)N(C)c2cnc(N(C)c3ccc(C(=O)NC4CCN(C)CC4)cc3OC)nc2N1C1CCCC1
IC50 (NOMO1; [6]): 771 nM | IC50 (BRDT): 365 nM | IC50 (BRD4 [1]): 130 nM | IC50 (797; 797 cell line, Table 2): 342 nM | IC50 (PLK1): 725 nM | IC50 (Kasumi-1; Homo sapiens): 339 nM | IC50 (TF-1; Homo sapiens): 1580 nM | IC50 (BRD4 [2]; [5]): 247 nM | IC50 (MOLM-13; Homo sapiens): 351 nM | IC50 (MV411; Homo sapiens, MV4-11): 200 nM

CC[C@@H]1C(=O)N(C)c2cnc(N3CCOc4cc(C(=O)NC5CCN(C)CC5)ccc43)nc2N1C1CCCC1
IC50 (NOMO1; [6]): 5420 nM | IC50 (BRDT): 5370 nM | IC50 (BRD4 [1]): 1620 nM | IC50 (797; 797 cell line, Table 2): 1940 nM | IC50 (PLK1): 1700 nM | IC50 (BRD4 [2]; [5]): 832 nM | IC50 (MOLM-13; Homo sapiens): 3490 nM | IC50 (MV411; Homo sapiens, MV4-11): 976 nM

CC[C@@H]1C(=O)N(C)c2cnc(Nc3ccc(C(=O)NC4CCN(C)CC4)cc3OC)nc2N1C1CCCC1 [drawing 214]
IC50 (NOMO1; [6]): 11.9 nM | IC50 797: 5 nM | IC50 (Kasumi-1; Homo sapiens): 9.9 nM | IC50 (TF-1; Homo sapiens): 772 nM | IC50 (MOLM-13; Homo sapiens): 8.1 nM | IC50 (MV411; Homo sapiens, MV4-11): 5.4 nM

CC[C@@H]1C(=O)N(C)c2cnc(N3CCc4cc(C(=O)NC5CCN(C)CC5)ccc43)nc2N1C1CCCC1
IC50 (NOMO1; [6]): 247 nM | IC50 (BRDT): 213 nM | IC50 (BRD4 [1]): 53 nM | IC50 (797; 797 cell line, Table 2): 64 nM | IC50 (PLK1): 20 nM | IC50 (BRD4 [2]; [5]): 43 nM | IC50 (MOLM-13; Homo sapiens): 137 nM | IC50 (MV411; Homo sapiens, MV4-11): 86 nM

CC[C@@H]1C(=O)Nc2cnc(Nc3ccc(C(=O)NC4CCN(C)CC4)cc3OC)nc2N1C1CCCC1
IC50 (NOMO1; [7]): 3200 nM | IC50 (BRDT): 21100 nM | IC50 (BRD4 [1]): 9170 nM | IC50 (797; 797 cell line, Table 2): 420 nM | IC50 (PLK1): 129 nM | IC50 (Kasumi-1; Homo sapiens): 1470 nM | IC50 (TF-1; Homo sapiens): 6700 nM | IC50 (BRD4 [2]; [5]): 6300 nM | IC50 (MOLM-13; Homo sapiens): 341 nM | IC50 (MV411; Homo sapiens, MV4-11): 302 nM

CC[C@@H]1C(=O)N(C)c2cnc(Nc3ccc(C(=O)NC4CCN(C)CC4)cc3OC)nc2N1C1CCCC1 [drawing 199]
EC50 (797; read-out: 797 (EC50, M)): 1.07e-08 M | EC50 (HL60): 3.65e-08 M

C[C@@H]1C(=O)N(C)c2ccc(N3CCc4cc(C(=O)NC5CCN(C)CC5)ccc43)nc2N1C1CCCC1
IC50 (NOMO1; [6]): 728 nM | IC50 (BRDT): 469 nM | IC50 (BRD4 [1]): 160 nM | IC50 (797; 797 cell line, Table 2): 227 nM | IC50 (PLK1): > 10000 nM | IC50 (BRD4 [2]; [5]): 78 nM | IC50 (MOLM-13; Homo sapiens): 333 nM | IC50 (MV411; Homo sapiens, MV4-11): 135 nM

COc1cc(C(=O)NC2CCN(C)CC2)ccc1Nc1ccc2c(n1)N(C1CCCC1)[C@H](C)C(=O)N2C
IC50 (NOMO1; [6]): 529 nM | IC50 (BRDT): 249 nM | IC50 (BRD4 [1]): 92 nM | IC50 (797; 797 cell line, Table 2): 181 nM | IC50 (PLK1): > 10000 nM | IC50 (BRD4 [2]; [5]): 100 nM | IC50 (MOLM-13; Homo sapiens): 218 nM | IC50 (MV411; Homo sapiens, MV4-11): 21 nM

CC[C@@H]1C(=O)N(C)c2cnc(Nc3ccc(C(=O)NC4CCN(C)CC4)cc3OC3CCCC3)nc2N1C1CCCC1
IC50 (NOMO1; [6]): 114 nM | IC50 (BRDT): 491 nM | IC50 (BRD4 [1]): 112 nM | IC50 (797; 797 cell line, Table 2): 95 nM | IC50 (PLK1): 19 nM | IC50 (Kasumi-1; Homo sapiens): 74.9 nM | IC50 (TF-1; Homo sapiens): 302 nM | IC50 (BRD4 [2]; [5]): 78 nM | IC50 (MOLM-13; Homo sapiens): 114 nM | IC50 (MV411; Homo sapiens, MV4-11): 71.2 nM

C[C@@H](Oc1cc(-n2cnc3ccc(CN4CCN(C)CC4)cc32)sc1C(N)=O)c1ccccc1C(F)(F)F [reference compound]
IC50 (BRDT): > 50000 nM | IC50 (BRD4 [1]): > 50000 nM | IC50 (797; 797 cell line, Table 2): 8 nM | IC50 (Kasumi-1; Homo sapiens): 7.8 nM | TF-1 IC50 (TF-1; result in words): poor convergence | IC50 (MV411; Homo sapiens, MV4-11): 7.1 nM

CC[C@@H]1C(=O)N(C)c2cnc(Oc3ccc(C(=O)NC4CCN(C)CC4)cc3OC)nc2N1C1CCCC1
IC50 (NOMO1; [7]): 7400 nM | IC50 (BRDT): 1170 nM | IC50 (BRD4 [1]): 415 nM | IC50 (797; 797 cell line, Table 2): 425 nM | IC50 (PLK1): > 10000 nM | IC50 (Kasumi-1; Homo sapiens): 1290 nM | IC50 (TF-1; Homo sapiens): 5400 nM | IC50 (BRD4 [2]; [5]): 720 nM | IC50 (MOLM-13; Homo sapiens): 1590 nM | IC50 (MV411; Homo sapiens, MV4-11): 316 nM

CC[C@@H]1C(=O)N(C)c2cnc(Nc3ccc(C(=O)NC4CCN(C)CC4)cc3)nc2N1C1CCCC1
IC50 (NOMO1; [6]): 29 nM | IC50 (BRDT): 688 nM | IC50 (BRD4 [1]): 147 nM | IC50 797: 6 nM | IC50 (AURKA): 9360 nM | IC50 (PLK1): 4.1 nM | IC50 (BRD4 [2]): 231 nM | IC50 (MOLM-13; Homo sapiens): 8.5 nM | IC50 (MV411; Homo sapiens, MV4-11): 10 nM
